Results on five compounds are retold here after patent US7973014B2, “Medicinal composition containing ginseng secondary glycosides, its preparation method and application” (National Institute of Pharmaceutical R&D Co., Ltd., priority 2005, dated 2011).

Where two headings read alike, the source gives them in different places. Marks after values point to notes of the source that are not given here.

In data set [1] the test system is rat arrhythmia induced by BaCl2. As to the kind of experiment: Arrhythmia induced by BaCl2 in rats. In kind it is in vivo. The note with it: 50 mg/kg. As to the method:
70 SD rats, including half male and half female, were randomly divided into: control group, Diltiazem group, 200 mg/kg Di'ao Xinxuekang group, 200 mg/kg the root total ginsenosides group, and 200, 100, 50, 25 mg/kg dosage groups of the total secondary ginsenosides. On the 7th day of administration of drug, 30 minutes after the administration of drug, each of the rats was anesthetized by intraperitoneal injection of 300 mg/kg 10% chloral hydrate, fixed in supine position on rat bench. The chart speed was set at 50 mm/s, and the sensitivity was set at 20 mm/mv. After printing under standard voltage, normal II Lead electrocardiogram was recorded for a certain period, then the rat was administered with 4 mg/kg barium chloride via sublingual vein and observed immediately to record the electrocardiograms at 1, 5, 10, 15, 20, 25, 30 minutes after the administration of barium chloride. The heart rate was calculated and compared with the reference value before administration, and the onset time and time period of arrhythmia were compared as well. The incidence rates of ventricular premature beat (VP), ventricular tachycardia (VT) and ventricular fibrillation (VF) were calculated.

Data set [2] has as its system coronary blood flow in experimental myocardial ischemia dogs. As to the kind of experiment: Coronary blood flow in experimental myocardial ischemia dogs. Format: in vivo, dog. The note with it: 5 mg/kg. As to the method:
(§1) Test dogs were divided into the following 8 groups, 6 dogs per group: (1) blank control group, 3 ml/kg physiological saline; (2) 5 mg/kg Diltiazem group; (3) 200 mg/kg “Di'ao Xinxuekang” group; (4) 200 mg/kg ginseng root total ginsenosides (briefly referred as root total ginsenosides) group; (5) 200 mg/kg ginseng stem/leave total ginsenosides (briefly referred as stem/leave total ginsenosides) group; (6) 25 mg/kg total secondary ginsenosides group; (7) 50 mg/kg total secondary ginsenosides group; and (8) 100 mg/kg total secondary ginsenosides group. All test drugs were formulated with distilled water to have the same volume (3 ml/kg), and were administered through duodenum.
(§2) Animals each was anesthetized with sodium pentobarbital (30 mg/kg), operated to form pericardium bed; left circumflex artery was separated, an electromagnetic flow meter probe was placed therein to measure cardiac coronary blood flow (CCBF); middle section of anterior descending coronary artery was separated, braided for ligation to create an experimental acute myocardial ischemia model; a multipoint fixed epicardial lead was sutured and connected with a multichannel electrophysiolograph to record epicardial electrogram. Coronary artery was ligated for 15 minutes, and recorded as control value before administration of drug, test drug or physiological saline was administered via duodenum, 30 mapping point epicardial electrograms were recorded at 15, 30, 45, 60, 90, 120, 180 minutes after the administration of drug, and the degree of myocardial ischemia (Σ-ST, total increase of mv number in S-T section) and the range of myocardial ischemia (N-ST, total increase of point numberin S-T section) were calculated. Blood samples were taken at orifice of coronary sinus vein by cannulation via external jugular vein before ischemia, at 15 minutes after ischemia (before administration of drug), and at 0, 30, 60, 90, 120, 180 minutes after administration of drug, the contents of oxygen in the coronary venous blood were measured by oxyhemograph; cannulation was made to common carotid artery, where the contents of […] in the arterial blood were measured, which together with coronary blood flow were used to calculate myocardial oxygen consumption (MOC). Blood samples were taken at the abovementioned time points to measure the levels of serum creatine kinase (CK) and lactic acid dehydrogenase (LDH); and the levels of blood plasma endothelin (ET), thromboxane B2 (TXB2) and 6-keto-prostaglandin F1a (6-Keto-PGF1a) were measured by an automatic γ-counter radioimmunologically.

In data set [3] the test system is thrombosis in experimental rat jugular arteriovenous bypass. As to the kind of experiment: Thrombosis in rat jugular arteriovenous bypass. In kind it is in vivo. The note with it: for inhibition at 50 mg/kg: Rattus norvegicus. As to the method:
70 Rats, half male and half female, weighting 250-300 g, were randomly divided into 7 groups, 10 rats per group, and fed for one week in advance. The said 7 groups included high, middle and low dosage groups of the total secondary ginsenosides (200, 100 and 50 mg/kg), and control groups: Diltiazem group (50 mg/kg), Di'ao Xinxuekang group (200 mg/kg), root total ginsenosides group (200 mg/kg) and blank control group (water). administered All the drugs and controls were administered through intragastrical perfusion for 7 days.
Measurement of the rate for inhibition of thrombosis: on the 7th day after administration of drug, 30 minutes after the administration, each of rats was anesthetized with sodium pentobarbital, the left external jugular vein and right common carotid artery were separated, three segments of polyethylene tubes were used to form cannula, and then 5 cm weighed 4-suture was placed in the middle segment. These polyethylene tubes were filled with heparin-physiological saline (50 U/ml). When one end of the tube was inserted into the external jugular vein, one end of the tube was clamped and the end fixed by suture was inserted into the right common carotid artery. After this operation, bleeding was performed immediately and then stopped 15 minutes later, the suture was taken out quickly and weighed. The wet weight of thrombus was calculated by subtracting the suture weight from the total weight. The thrombosis inhibition rate was calculated according to the following formula. Inhibition rate (%)=[(Thrombus weight of the control group)−(Thrombus weight of the group administered with drug)]/(Thrombus weight of the control group)×100% Results: […]

Data set [4] deals with acute myocardial ischemia induced by coronary artery ligation in anesthetized dogs. As to the kind of experiment: Myocardial ischemia induced by coronary artery ligation in anesthetized dogs, epicardial electrogram mapping. Format: in vivo, dog. To be noted: 5 mg/kg. Here is the method:
as §1, §2
(§3) The test results were statistically analyzed, and t-test was used to determine the significance.

In data set [5] the test system is acute myocardial infarction in dogs. Briefly: Range of acute myocardial infarction in dogs, N-BT staining. In kind it is in vivo, dog. The note with it: 5 mg/kg. As to the method:
as §1
Recording was completed at 180 minutes after administration of drug, heart was taken out immediately, cardiac ventricle was cross-sectioned parallel to coronary sulcus under heart ligature to form 5 slices, which were placed in N-BT staining solution and stained at room temperature for 15 minutes. Infarction zone (N-BT non-staining zone) and non-infarction zone (N-BT staining zone) at both sides of each slice of cardiac muscle were measured by using a multimedia color pathologic image analysis system to calculate the area of each slice of cardiac muscle, the total area of the cardiac ventricle and the total area of the infarction zones. The percentages of infarction zones based on the cardiac ventricle and on the whole heart were calculated.
as §3

The subject of data set [6] is platelets. The note with it: cited from earlier work.
Data set [7] relates to cancer cells. To be noted: cited from earlier work.
Data set [8] has as its target thrombin (Homo sapiens, UniProt P00734). The note with it: cited from earlier work.
For data set [9] the following is noted: oral administration, human body; cited from earlier work.

On to `COc1ccc([C@@H]2Sc3ccccc3N(CCN(C)C)C(=O)[C@@H]2OC(C)=O)cc1` [Diltiazem], for which the Duration of arrhythmia in [1] was 13.2 ± 6.0 min. Further, in data set [1], the “Incidence rate of VF” value is listed as 0* %. Further, the “Onset time of VP” value in [1] is given as 15.0 ± 10.8 s. For the same compound, the “Onset time of VT” value in data set [1] stood at 20 ± 8.8 s. The Heart rate is 327 ± 64 beat/min in data set [1] (5 min after BaCl2); 360 ± 88 beat/min in [1] (10 min after BaCl2); 381 ± 71 beat/min in data set [1] (20 min after BaCl2); 399 ± 42 beat/min in data set [1] (30 min after BaCl2); 397 ± 53 beat/min in data set [1] (before BaCl2). Also, the coronary blood flow in data set [2] (30 min after drug) was 110.36 ± 58.20 ml/100 g · min^−1; in data set [2] (60 min after drug) it was 119.11 ± 61.62 ml/100 g · min^−1; in data set [2] (90 min after drug), 122.97 ± 64.44 ml/100 g · min^−1; in [2] (120 min after drug) it was 119.15 ± 65.51 ml/100 g · min^−1; in [2] (180 min after drug), 112.10 ± 60.59 ml/100 g · min^−1; in data set [2] (after ischemia before drug) it was 101.82 ± 54.71 ml/100 g · min^−1. This compound displayed a coronary blood flow in data set [2] (before ischemia (normal value)) of 92.07 ± 46.98 ml/100 g · min^−1. Moreover, the “coronary blood flow change rate” value was determined as 108.70 ± 3.32 % in [2] (30 min after drug); 117.06 ± 5.17 % in [2] (60 min after drug); 120.06 ± 7.27 % in data set [2] (90 min after drug); 116.97 ± 7.33 % in data set [2] (120 min after drug); 112.21 ± 6.46 % in [2] (180 min after drug); 110.34 ± 4.17% in [2] (after ischemia before drug). The “Wet weight of thrombus” value in data set [3] (50 mg/kg intragastric, 7 days) is listed as 0.0200 ± 0.005 g. For the same compound, the inhibition at 50 mg/kg worked out at 32.9% in data set [3] (po, 168 h, 50 mg/kg intragastric, 7 days, read-out: Inhibition rate) and 33% in data set [3] (50 mg/kg, read-out: inhibition rate of thrombosis). Further, the N-ST change rate was found to be 89.60 ± 8.40 % in data set [4] (15 min after drug); 89.53 ± 15.49% in data set [4] (30 min after drug); 86.82 ± 14.83% in data set [4] (45 min after drug); 87.48 ± 15.08% in [4] (60 min after drug); 81.41 ± 14.31 % in [4] (90 min after drug); 77.22 ± 16.49 % in [4] (120 min after drug). The compound also gave a N-ST change rate in data set [4] (180 min after drug) of 75.89 ± 19.59 %. Moreover, the “acute myocardial ischemia (N-ST)” value in data set [4] (15 min after drug) is on record as 24.83 ± 2.04; in data set [4] (30 min after drug), 25.33 ± 4.08; in data set [4] (45 min after drug) it was 23.17 ± 5.91; in data set [4] (60 min after drug), 23.50 ± 4.85; in data set [4] (90 min after drug) it was 21.50 ± 5.86; in data set [4] (120 min after drug) it was 20.00 ± 6.00. Also, the “acute myocardial ischemia (N-ST)” value in [4] (180 min after drug) is 20.67 ± 5.99; in data set [4] (before drug), 28.67. The “degree of acute myocardial ischemia (Σ-ST)” value in data set [4] (15 min after drug) is listed as 182.00 ± 70.40 mv; in data set [4] (30 min after drug), 149.83 ± 41.36 mv; in data set [4] (45 min after drug), 126.00 ± 47.35 mv; in [4] (60 min after drug) it was 148.67 ± 71.87 mv; in data set [4] (90 min after drug) it was 140.17 ± 63.46 mv; in data set [4] (120 min after drug) it was 139.00 ± 69.20 mv. Moreover, the “degree of acute myocardial ischemia (Σ-ST)” value in data set [4] (180 min after drug) came to 117.17 ± 54.27 mv; in data set [4] (before drug), 291.00 ± 40.39 mv. The Σ-ST change rate in data set [4] (15 min after drug) was 61.01 ± 20.89 %; in [4] (30 min after drug), 48.75 ± 9.99 %; in data set [4] (45 min after drug), 42.43 ± 8.97 %; in [4] (60 min after drug) it was 47.78 ± 10.82 %; in data set [4] (90 min after drug), 54.98 ± 18.57 %; in data set [4] (120 min after drug) it was 52.21 ± 19.91 %. This compound also showed a Σ-ST change rate in [4] (180 min after drug) of 45.99 ± 18.90 %. Also, the Infarction zone area in data set [5] is 266.25 ± 63.4*** mm^2. The compound further yielded an Infraction zone/cardiac ventricle in [5] of 5.36 ± 1.70. Besides, the Infraction zone/heart in data set [5] stood at 2.27 ± 0.83.

With `CC(C)=CCC[C@](C)(O)[C@H]1CC[C@]2(C)[C@@H]1[C@H](O)C[C@@H]1[C@@]3(C)CC[C@H](O[C@@H]4O[C@H](CO)[C@@H](O)[C@H](O)[C@H]4O[C@@H]4O[C@H](CO)[C@@H](O)[C@H](O)[C@H]4O)C(C)(C)[C@@H]3CC[C@]12C` [Ginsenoside Rg3], in [6], the “platelet aggregation induced by collagen or ADP” value is “relatively strong inhibitory effects”. The anticancer activity result in [7] is listed as “significant anticancer activity”.

For `CC(C)=CCC[C@](C)(O)[C@H]1CC[C@]2(C)[C@@H]1[C@H](O)C[C@@H]1[C@@]3(C)CC[C@H](O)C(C)(C)[C@@H]3[C@@H](O[C@@H]3O[C@H](CO)[C@@H](O)[C@H](O)[C@H]3O)C[C@]12C` [Ginsenoside Rh1], the “conversion of fibrinogen to fibrin induced by thrombin” value in [8] is listed as “significant inhibitory effects”. In addition, the anticancer activity entry in [7] was “significant anticancer activity”.

Turning to `CC(C)=CCC[C@](C)(O)[C@H]1CC[C@]2(C)[C@@H]1[C@H](O)C[C@@H]1[C@@]3(C)CC[C@H](O[C@@H]4O[C@H](CO)[C@@H](O)[C@H](O)[C@H]4O)C(C)(C)[C@@H]3CC[C@]12C` [Rh2, ginsenoside Rh2], in data set [7], the anticancer activity result is reported as “significant anticancer activity”.

On to `CC(C)=CCC[C@](C)(O[C@@H]1O[C@H](CO[C@@H]2O[C@H](CO)[C@@H](O)[C@H](O)[C@H]2O)[C@@H](O)[C@H](O)[C@H]1O)[C@H]1CC[C@]2(C)[C@@H]1[C@H](O)C[C@@H]1[C@@]3(C)CC[C@H](O[C@@H]4O[C@H](CO)[C@@H](O)[C@H](O)[C@H]4O[C@@H]4O[C@H](CO)[C@@H](O)[C@H](O)[C@H]4O)C(C)(C)[C@@H]3CC[C@]12C` [ginsenoside-Rb1], for which the absorption rate in data set [9] is 1%.

The term inhibition denotes the percentage by which the read-out fell short of the control.
